The subject of this test is Isolated cuticles from apple leaves (Malus domestica cv. 'Golden Delicious'). The test is described as follows: Leaf penetration (Franz cell diffusion of Imidacloprid through isolated cuticles). The format is in vitro ADME. The conditions noted are these: active alone without penetrant. Here is the method: The following test method was used to assess leaf penetration properties of the synthesised ethoxylated polyol alkoxylates P1 to P18.
Franz cells were set up containing: • Receptor solution: 10 mM sodium phosphate buffer pH 6.0 containing 0.1 mM sodium azide • Donor solution: unformulated pesticide containing 0.5 g/l of Imidacloprid (N-[1-[(6-Chloro-3-pyridyl)methyl]-4,5-dihydroimidazol-2-yl]nitramide) and 2.5 g/l of penetrant, in 5 mM lactic acid (pre-buffered with KOH), preserved with 0.5 mM sodium azide, (+/−0.25% w/v), i.e. 2.5 g/l donor).
The Franz cell experiments were used for diffusion experiments. Isolated cuticles from apple leaves (Malus domestica cv. ‘Golden Delicious’) were prepared based on the method detailed in US 2009/0247597. The donor compartment was removed to aid deposit formation. Experiments were performed at a controlled temperature of 20° C., and a controlled relative humidity of 58%. A calibration was carried out (0-100% penetration) obtaining the concentration of Imidacloprid in the receiver solution removed from the Franz Cell.
HPLC-UV was used to assay imidacloprid concentration using an Agilent 1260 Quaternary LC system. Each penetrant was tested for leaf penetration properties, with a total of 18 Franz cells used for percentage penetration determination. A calibration was carried out before each set of samples was analysed. […]

`O=[N+]([O-])NC1=NCCN1Cc1ccc(Cl)nc1` [Imidacloprid, N-[1-[(6-Chloro-3-pyridyl)methyl]-4,5-dihydroimidazol-2-yl]nitramide]: the “% penetration after 72 hours” value is listed as 1.7%.

Source of the values: US9681658B2, “Penetrants for agrochemical formulations” (CRODA INTERNATIONAL PLC, priority 2012, dated 2017).
